Assays:
Assay in all cases: viability relative to DMSO control (fraction); higher = less drug effect (more viable cells)
Details in all cases: 48 h
Pralatrexate = compound: C#CCC(Cc1cnc2nc(N)nc(N)c2n1)c1ccc(C(=O)N[C@@H](CCC(=O)O)C(=O)O)cc1 [Pralatrexate]
Summary of the method: (§1)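 The cells were primary mononuclear tumour cells, either fresh or cryopreserved, isolated by Ficoll from blood or bone marrow or derived from processed lymph node. Each well of a 384-well plate received 4 × 10^4 cells onto compounds pre-plated at five concentrations, with one well per concentration. The medium was RPMI-1640 with penicillin/streptomycin, L-glutamine and human serum, and plates stood at 37 °C and 5% CO2 for 48 h. Viability is reported as CellTiter-Glo luminescence relative to the median of 16 inner DMSO wells.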

Idarubicin = compound: CC(=O)[C@]1(O)Cc2c(O)c3c(c(O)c2[C@@H](O[C@H]2C[C@H](N)[C@H](O)[C@H](C)O2)C1)C(=O)c1ccccc1C3=O [Idarubicin]
Summary of the method: as §1

ERK5-IN-1 = compound: CCOc1cc(C(=O)N2CCC(N3CCN(C)CC3)CC2)ccc1Nc1ncc2c(n1)N(C1CCCC1)c1ccccc1C(=O)N2C [ERK5-IN-1]
Summary of the method: as §1

Birinapant = compound: CC[C@H](NC(=O)[C@H](C)NC)C(=O)N1C[C@@H](O)C[C@H]1Cc1c(-c2[nH]c3cc(F)ccc3c2C[C@@H]2C[C@H](O)CN2C(=O)[C@H](CC)NC(=O)[C@H](C)NC)[nH]c2cc(F)ccc12 [Birinapant]
Summary of the method: as §1

Ribociclib = compound: CN(C)C(=O)c1cc2cnc(Nc3ccc(N4CCNCC4)cn3)nc2n1C1CCCC1 [Ribociclib]
Summary of the method: as §1

Obatoclax mesylate = compound: COC1=CC(c2cc3ccccc3[nH]2)=N/C1=C\c1[nH]c(C)cc1C [Obatoclax mesylate]
Summary of the method: as §1

MLN-120B = compound: COc1c(Cl)cc2c([nH]c3cnccc32)c1NC(=O)c1cccnc1C [MLN-120B]
Summary of the method: as §1

Panobinostat = compound: Cc1[nH]c2ccccc2c1CCNCc1ccc(/C=C/C(=O)NO)cc1 [Panobinostat]
Summary of the method: as §1

Imatinib = compound: Cc1ccc(NC(=O)c2ccc(CN3CCN(C)CC3)cc2)cc1Nc1nccc(-c2cccnc2)n1 [Imatinib]
Summary of the method: as §1

AZD7762 = compound: NC(=O)Nc1cc(-c2cccc(F)c2)sc1C(=O)N[C@H]1CCCNC1 [AZD7762]
Summary of the method: as §1

Iniparib = compound: NC(=O)c1ccc(I)c([N+](=O)[O-])c1 [Iniparib]
Summary of the method: as §1

Cladribine = compound: Nc1nc(Cl)nc2c1ncn2[C@H]1C[C@H](O)[C@@H](CO)O1 [Cladribine]
Summary of the method: as §1

Vorinostat = compound: O=C(CCCCCCC(=O)Nc1ccccc1)NO [Vorinostat]
Summary of the method: as §1

TMP269 = compound: O=C(NCC1(c2nc(-c3ccccc3)cs2)CCOCC1)c1cccc(-c2noc(C(F)(F)F)n2)c1 [TMP269]
Summary of the method: as §1

Pentostatin = compound: OC[C@H]1O[C@@H](n2cnc3c2N=CNC[C@H]3O)C[C@@H]1O [Pentostatin]
Summary of the method: as §1

primary AML patient cells (S011)
viability (Pralatrexate; 0.024 µM): 1
viability (Pralatrexate; 0.12 µM): 0.92
viability (Pralatrexate; 0.6 µM): 0.93
viability (Pralatrexate; 3 µM): 1.04
viability (Pralatrexate; 15 µM): 1.05
viability (Idarubicin; 0.024 µM): 0.338
viability (Idarubicin; 0.12 µM): 0.0947
viability (Idarubicin; 0.6 µM): 0.0202
viability (Idarubicin; 3 µM): 0.0148
viability (Idarubicin; 15 µM): 0.0146
viability (ERK5-IN-1; 0.024 µM): 0.93
viability (ERK5-IN-1; 0.12 µM): 0.778
viability (ERK5-IN-1; 0.6 µM): 0.663
viability (ERK5-IN-1; 3 µM): 0.445
viability (ERK5-IN-1; 15 µM): 0.152
viability (Birinapant; 0.0008 µM): 0.417
viability (Birinapant; 0.004 µM): 0.452
viability (Birinapant; 0.02 µM): 0.349
viability (Birinapant; 0.1 µM): 0.235
viability (Birinapant; 0.5 µM): 0.194
viability (Ribociclib; 0.024 µM): 1.41
viability (Ribociclib; 0.12 µM): 1.15
viability (Ribociclib; 0.6 µM): 0.975
viability (Ribociclib; 3 µM): 0.933
viability (Ribociclib; 15 µM): 0.391
viability (Obatoclax mesylate; 0.024 µM): 0.856
viability (Obatoclax mesylate; 0.12 µM): 1.04
viability (Obatoclax mesylate; 0.6 µM): 0.891
viability (Obatoclax mesylate; 3 µM): 0.592
viability (Obatoclax mesylate; 15 µM): 0.144
viability (MLN-120B; 0.024 µM): 0.878
viability (MLN-120B; 0.12 µM): 0.849
viability (MLN-120B; 0.6 µM): 0.899
viability (MLN-120B; 3 µM): 0.819
viability (MLN-120B; 15 µM): 0.76
viability (Panobinostat; 0.00064 µM): 0.733
viability (Panobinostat; 0.0032 µM): 0.379
viability (Panobinostat; 0.016 µM): 0.256
viability (Panobinostat; 0.08 µM): 0.341
viability (Panobinostat; 0.4 µM): 0.272
viability (Imatinib; 0.016 µM): 0.932
viability (Imatinib; 0.08 µM): 1.24
viability (Imatinib; 0.4 µM): 1.33
viability (Imatinib; 2 µM): 1.06
viability (Imatinib; 10 µM): 0.789
viability (AZD7762; 0.024 µM): 0.887
viability (AZD7762; 0.12 µM): 0.817
viability (AZD7762; 0.6 µM): 0.596
viability (AZD7762; 3 µM): 0.234
viability (AZD7762; 15 µM): 0.169
viability (Iniparib; 0.024 µM): 1.13
viability (Iniparib; 0.12 µM): 1.32
viability (Iniparib; 0.6 µM): 1.11
viability (Iniparib; 3 µM): 1.07
viability (Iniparib; 15 µM): 1.34
viability (Cladribine; 0.024 µM): 0.637
viability (Cladribine; 0.12 µM): 0.543
viability (Cladribine; 0.6 µM): 0.414
viability (Cladribine; 3 µM): 0.335
viability (Cladribine; 15 µM): 0.278
viability (Vorinostat; 0.016 µM): 1.08
viability (Vorinostat; 0.08 µM): 0.942
viability (Vorinostat; 0.4 µM): 0.554
viability (Vorinostat; 2 µM): 0.353
viability (Vorinostat; 10 µM): 0.326
viability (TMP269; 0.024 µM): 0.967
viability (TMP269; 0.12 µM): 0.916
viability (TMP269; 0.6 µM): 0.968
viability (TMP269; 3 µM): 0.817
viability (TMP269; 15 µM): 0.696
viability (Pentostatin; 0.03 µM): 1.03
viability (Pentostatin; 0.15 µM): 1.03
viability (Pentostatin; 0.75 µM): 1.02
viability (Pentostatin; 3.75 µM): 0.875
viability (Pentostatin; 18.76 µM): 1.41

primary MCL patient cells (S068)
viability (Pralatrexate; 0.024 µM): 1.03
viability (Pralatrexate; 0.12 µM): 1.01
viability (Pralatrexate; 0.6 µM): 1.03
viability (Pralatrexate; 3 µM): 0.965
viability (Pralatrexate; 15 µM): 0.99
viability (Idarubicin; 0.024 µM): 0.835
viability (Idarubicin; 0.12 µM): 0.457
viability (Idarubicin; 0.6 µM): 0.154
viability (Idarubicin; 3 µM): 0.017
viability (Idarubicin; 15 µM): 0.021
viability (ERK5-IN-1; 0.024 µM): 0.883
viability (ERK5-IN-1; 0.12 µM): 0.815
viability (ERK5-IN-1; 0.6 µM): 0.478
viability (ERK5-IN-1; 3 µM): 0.269
viability (ERK5-IN-1; 15 µM): 0.181
viability (Birinapant; 0.0008 µM): 0.868
viability (Birinapant; 0.004 µM): 0.758
viability (Birinapant; 0.02 µM): 0.663
viability (Birinapant; 0.1 µM): 0.55
viability (Birinapant; 0.5 µM): 0.489
viability (Ribociclib; 0.024 µM): 0.848
viability (Ribociclib; 0.12 µM): 0.868
viability (Ribociclib; 0.6 µM): 0.645
viability (Ribociclib; 3 µM): 0.487
viability (Ribociclib; 15 µM): 0.362
viability (Obatoclax mesylate; 0.024 µM): 1.07
viability (Obatoclax mesylate; 0.12 µM): 2.64
viability (Obatoclax mesylate; 0.6 µM): 5.84
viability (Obatoclax mesylate; 3 µM): 4.5
viability (Obatoclax mesylate; 15 µM): 1.46
viability (MLN-120B; 0.024 µM): 0.885
viability (MLN-120B; 0.12 µM): 0.872
viability (MLN-120B; 0.6 µM): 0.853
viability (MLN-120B; 3 µM): 0.751
viability (MLN-120B; 15 µM): 0.593
viability (Panobinostat; 0.00064 µM): 0.613
viability (Panobinostat; 0.0032 µM): 0.284
viability (Panobinostat; 0.016 µM): 0.13
viability (Panobinostat; 0.08 µM): 0.105
viability (Panobinostat; 0.4 µM): 0.105
viability (Imatinib; 0.016 µM): 1.19
viability (Imatinib; 2 µM): 0.976
viability (Imatinib; 10 µM): 0.861
viability (AZD7762; 0.024 µM): 0.688
viability (AZD7762; 0.12 µM): 0.491
viability (AZD7762; 0.6 µM): 0.369
viability (AZD7762; 3 µM): 0.248
viability (AZD7762; 15 µM): 0.374
viability (Iniparib; 0.024 µM): 1.14
viability (Iniparib; 0.12 µM): 1.1
viability (Iniparib; 0.6 µM): 1.01
viability (Iniparib; 3 µM): 1.04
viability (Iniparib; 15 µM): 0.984
viability (Cladribine; 0.024 µM): 0.741
viability (Cladribine; 0.12 µM): 0.376
viability (Cladribine; 0.6 µM): 0.233
viability (Cladribine; 3 µM): 0.161
viability (Cladribine; 15 µM): 0.175
viability (Vorinostat; 0.016 µM): 1.1
viability (Vorinostat; 0.08 µM): 1.04
viability (Vorinostat; 0.4 µM): 0.459
viability (Vorinostat; 2 µM): 0.167
viability (Vorinostat; 10 µM): 0.121
viability (TMP269; 0.024 µM): 0.882
viability (TMP269; 0.12 µM): 0.943
viability (TMP269; 0.6 µM): 0.894
viability (TMP269; 3 µM): 1.01
viability (TMP269; 15 µM): 1.24
viability (Pentostatin; 0.03 µM): 0.654
viability (Pentostatin; 0.15 µM): 0.644
viability (Pentostatin; 0.75 µM): 0.736
viability (Pentostatin; 3.75 µM): 0.526
viability (Pentostatin; 18.76 µM): 0.448
